Test [1] concerns the target T1, human NK2 receptor (Homo sapiens, UniProt P21452).
T1 construct: expressed in transfected cells; host or cells: COS cells
T1 sequence (P21452 1-398): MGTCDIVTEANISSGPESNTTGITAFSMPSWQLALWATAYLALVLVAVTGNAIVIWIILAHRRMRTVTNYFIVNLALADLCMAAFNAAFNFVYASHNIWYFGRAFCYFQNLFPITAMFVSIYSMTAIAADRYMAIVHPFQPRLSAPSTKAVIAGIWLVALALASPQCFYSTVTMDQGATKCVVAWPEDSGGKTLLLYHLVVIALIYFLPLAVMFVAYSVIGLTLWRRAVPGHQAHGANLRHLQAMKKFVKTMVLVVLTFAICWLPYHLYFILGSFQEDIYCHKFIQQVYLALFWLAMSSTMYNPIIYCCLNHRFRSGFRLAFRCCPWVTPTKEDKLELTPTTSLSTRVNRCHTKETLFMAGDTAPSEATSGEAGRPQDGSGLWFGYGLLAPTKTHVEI
Put plainly: Test for binding to human NK2 receptor. Here is the method:
A solution of cryopreserved COS cells expressing human NK2 receptor was diluted with a buffer (50 mM tris-hydrochloride containing 0.04% of bovine serum albumin [BSA], pH 7.4) to obtain a concentration of 5.0×10^5 cells/mL and used as a crude membrane sample.
[^3H]SR 48968 (GE Healthcare Japan Corporation) was diluted with a mixture of 50 mM of tris-hydrochloride (pH 7.4), 6 mM of manganese chloride tetrahydrate, 800 μg/mL of BSA, 8 μg/mL of chymostatin, 8 μg/mL of leupeptin, 80 μg/mL of bacitracin, and 20 μg/mL of phosphoramidon. […] After the reaction, the membrane components were collected on a GF/B glass fiber filter paper (Whatman; Biomedical Research and Development Laboratories, Inc.) with an automated filtration system (Brandel; Biomedical Research and Development Laboratories, Inc.). The glass fiber filter paper was pretreated with a 0.1% polyethylenimine solution for 4 hours or longer to minimize non-specific binding. The filter collecting the membrane components was transferred to a small-size plastic vial containing 3 mL of Pico-Fluor, and the radioactivity was measured with a liquid scintillation counter (Tri-Carb 2900TR or 2300TR; Perkin Elmer).
The effect of binding to the NK2 receptor was calculated as the affinity (Ki) of the test substance for the NK2 receptor from a 50% binding dose (IC50) and the affinity (Kd) of [^3H]SR 48968 for the NK2 receptor.

In test [2] the test system is muscarine M3 receptor. Kind of test: Effect of suppressing methacholine-induced airway contraction (in vivo, intratracheal administration). Details: species or system guinea pig. The conditions noted are these: guinea pigs, intratracheal administration 60 minutes before 30 μg/kg i.v. methacholine; AUC of increase in airway pressure over 10 minutes. Here is the method: Using healthy guinea pigs (body weight, 350 to 550 g; Hartley male guinea pigs), the effect of suppressing airway contraction induced by methacholine, which is a muscarine receptor agonist, was examined by a modified method of Konzett-Roessler (Naunyn-Schmiedebergs Arch. Exp. Pathol. Pharmakol. 195, 71 [1940]) using airway pressure as an indicator.
(§1) A tracheal cannula and a venous cannula were attached to a guinea pig anesthetized with pentobarbital (50 mg/mL of solution, 0.40 to 0.50 mL/body, subcutaneous administration). An arterial cannula filled with heparin-containing physiological saline (100 U/mL) was further attached, and blood pressure and heart rate were monitored via an amplifier and an instantaneous heart rate meter. Subsequently, gallamine (20 mg/body, intravenous administration) was administered to terminate spontaneous breathing, and then 10 mL/kg of positive pressure breathing (Ugo-Basile Biological Research Apparatus, Cat. No. 7025) was rapidly performed at 60 times/min. The airway pressure during artificial breathing was detected with a pressure transducer (TP-200T or TP-400T; Nihon Kohden Corporation) attached to a side branch of the tracheal cannula, amplified (AP-601G; Nihon Kohden Corporation), and recorded in a recorder. After the airway pressure, blood pressure, and heart rate were stabilized, 30 μg/kg of methacholine was intravenously administered from the venous cannula to induce airway contraction, and the airway pressure was measured for the following 10 minutes.
A test substance was dissolved in 5% glucose solution, and a 0.5 mL/kg solution was administered intratracheally with an intratracheal administration apparatus (model 1A-1B; Penn-Century, Inc.) 60 minutes before stimulation with methacholine.
The AUC of increase in the airway pressure over 10 minutes after administration of methacholine was measured as the intensity of methacholine-induced airway contraction and calculated as an ID50 value from the inhibition rate based on the value of the control group (a 5% glucose solution intratracheal administration group).

Test [3] concerns the target T2, human M3 receptor (Homo sapiens, UniProt P20309).
T2 construct: expressed in transfected cells; host or cells: CHO cells
Kind of test: Test for binding to human M3 receptor. The method, then: A solution of cryopreserved CHO cells expressing human M3 receptor was diluted with a buffer (50 mM tris-hydrochloride containing 0.5 mM of EDTA, pH 7.4) to obtain 5.0×10^5 of cells/mL and used as a crude membrane sample.
[N-methyl-^3H]-(−)-Scopolamine methyl chloride (GE Healthcare Japan Corporation) was diluted with 50 mM of tris-hydrochloride containing 0.5 mM of EDTA (pH 7.4), a test substance and 250 μL of the crude membrane sample solution were added to 250 μL of the mixture, and the mixture was incubated at room temperature for 60 minutes. […] The glass fiber filter paper was pretreated with a 0.1% polyethylenimine solution for 4 hours or longer to minimize non-specific binding. The filter collecting membrane components was transferred to a small-size plastic vial containing 3 mL of Pico-Fluor, and the radioactivity was measured with a liquid scintillation counter (Tri-Carb 2900TR or 2300TR; Perkin Elmer).
The effect of binding to the M3 receptor was calculated as the affinity (Ki) of the test substance for the M3 receptor from a 50% binding dose (IC50) and the affinity (Kd) of [N-methyl-^3H]-(−)-Scopolamine methyl chloride for the M3 receptor.

The target in test [4] is T3, substance P receptor (Cavia porcellus, UniProt P30547).
T3 construct: A preparation of a crude lung membrane sample was prepared; from tissue; host or cells: guinea-pig lung (crude membrane sample)
T3 sequence (P30547 whole entry): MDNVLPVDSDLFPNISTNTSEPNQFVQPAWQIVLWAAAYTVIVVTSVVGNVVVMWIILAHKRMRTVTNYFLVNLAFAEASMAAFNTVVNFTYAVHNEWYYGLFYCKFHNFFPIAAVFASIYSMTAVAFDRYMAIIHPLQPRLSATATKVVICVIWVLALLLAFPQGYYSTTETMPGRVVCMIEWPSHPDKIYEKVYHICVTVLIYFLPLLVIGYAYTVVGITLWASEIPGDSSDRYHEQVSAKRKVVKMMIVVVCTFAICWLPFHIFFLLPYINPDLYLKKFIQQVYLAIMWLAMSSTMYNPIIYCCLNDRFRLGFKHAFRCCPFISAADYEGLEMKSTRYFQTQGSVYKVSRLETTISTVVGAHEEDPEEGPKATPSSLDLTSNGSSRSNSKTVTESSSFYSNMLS
Put plainly: Test for binding to guinea-pig substance P receptor (crude lung membrane sample). Particulars: crude guinea-pig lung membrane sample, [3H]substance P; Ki from IC50 and Kd; read-out: Ki. The method, then: A preparation of a crude lung membrane sample was prepared, and a test for binding of a test substance to the sample was performed according to the method described in EP0336230A2.
The binding effect of the test substance to a substance P receptor was calculated as an affinity (Ki) of the test substance for the substance P receptor from a 50% binding concentration (IC50) and an affinity (Kd) of [^3H]substance P for the substance P receptor.

In test [5] the target is T4, neurokinin NK1 receptor (Cavia porcellus, UniProt P30547).
T4 construct: Using healthy guinea pigs (body weight, 350 to 550 g; Hartley male guinea pigs); from tissue; host or cells: live anaesthetised Hartley male guinea pigs (airway, in vivo)
T4 sequence (P30547 whole entry): as above
Put plainly: Effect of suppressing substance P-induced airway contraction (in vivo, intratracheal administration). Details: species or system guinea pig. Particulars: guinea pig; guinea pigs, intratracheal administration 60 minutes before 20 μg/kg i.v. SP; AUC of increase in airway pressure over 10 minutes; read-out: ID50 (the source's name). Here is the method:
Using healthy guinea pigs (body weight, 350 to 550 g; Hartley male guinea pigs), the effect of suppressing airway contraction induced by substance P (SP), which is an NK1 receptor agonist, was examined by a modified method of Konzett-Roessler (Naunyn-Schmiedebergs Arch. Exp. Pathol. Pharmakol. 195, 71 [1940]) using airway pressure as an indicator.
as §1, with “mg/mL” for “mg/mL of”, “20” for “30”, “SP” for “methacholine”
The test substance was dissolved in a 5% glucose solution, a 0.5 mL/kg solution was intratracheally administered with an intratracheal administration apparatus (model 1A-1B; Penn-Century, Inc.) 60 minutes before stimulation with SP.
The AUC of increase in the airway pressure over 10 minutes after administration of SP was determined as the intensity of SP-induced airway contraction and calculated as an ID50 value from the inhibition rate based on the value of the control group (5% glucose solution intratracheal administration group).

Structures can show the parent of a compound that is named as a salt. Where two headings read alike, the source gives them in different places.

T2 sequence (P20309 whole entry): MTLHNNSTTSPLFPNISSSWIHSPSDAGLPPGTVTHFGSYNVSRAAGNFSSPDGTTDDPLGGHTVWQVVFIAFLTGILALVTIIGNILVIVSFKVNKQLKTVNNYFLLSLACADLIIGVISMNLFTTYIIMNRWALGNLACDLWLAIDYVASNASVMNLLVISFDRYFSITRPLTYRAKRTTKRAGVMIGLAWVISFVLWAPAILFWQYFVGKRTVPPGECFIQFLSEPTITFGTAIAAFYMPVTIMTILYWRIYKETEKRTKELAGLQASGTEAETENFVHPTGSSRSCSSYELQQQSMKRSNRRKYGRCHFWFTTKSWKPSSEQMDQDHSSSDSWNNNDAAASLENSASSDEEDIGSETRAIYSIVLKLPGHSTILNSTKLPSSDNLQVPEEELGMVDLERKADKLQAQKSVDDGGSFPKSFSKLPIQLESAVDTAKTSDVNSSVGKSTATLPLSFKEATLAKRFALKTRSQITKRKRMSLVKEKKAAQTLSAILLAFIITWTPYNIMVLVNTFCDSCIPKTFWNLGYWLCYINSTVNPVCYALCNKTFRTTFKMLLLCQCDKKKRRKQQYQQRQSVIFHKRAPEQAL

Consider `CN(CCN1CCC(OC(=O)Nc2ccccc2-c2ccccc2)CC1)C(=O)CCCCCNc1ccc(C(=O)N(C)CCCN(C)C(=O)CO[C@H]2Cc3ccccc3C23CCN(CC[C@@]2(c4ccc(F)cc4)CN(C(=O)c4cc(C(F)(F)F)cc(C(F)(F)F)c4)CO2)CC3)s1` [Example 4, 1-(2-{[6-({5-[{3-[({[(2S)-1′-{2-[(5R)-3-[3,5-Bis(trifluoromethyl)benzoyl]-5-(4-fluorophenyl)-1,3-oxazolidin-5-yl]ethyl}-2,3-dihydrospiro[indene-1,4′-piperidin]-2-yl]oxy}acetyl)(methyl)amino]propyl}(methyl)carbamoyl]-2-thienyl}amino)hexanoyl](methyl)amino}ethyl)piperidin-4-yl biphenyl-2-ylcarbamate], for which the Ki (as a rule, the equilibrium dissociation constant of an inhibitor or competing ligand from its target) was 0.62 nM in test [1] (COS cells expressing human NK2 receptor, [3H]SR 48968 1 nM, Ki from IC50 and Kd, read-out: Ki); 2.1 nM in test [3] (CHO cells expressing human M3 receptor, [N-methyl-3H]-(-)-Scopolamine methyl chloride 0.5 nM, Ki from IC50 and Kd, read-out: Ki); 1.8 nM in test [4]. Also, the ID50 in test [2] was 0.0252 mg/kg.
Turning to `CN(CCN1CCC(OC(=O)Nc2ccccc2-c2ccccc2)CC1)C(=O)CCCCCNc1ccc(C(=O)N(C)CCCN(C)C(=O)CO[C@H]2Cc3ccccc3C23CCN(CC[C@@]2(c4ccc(F)cc4)CN(C(=O)c4cc(C(F)(F)F)cc(C(F)(F)F)c4)CO2)CC3)c(Cl)c1` [Example 85, 1-(2-{[6-({4-[{3-[({[(2S)-1′-{2-[(5R)-3-[3,5-Bis(trifluoromethyl)benzoyl]-5-(4-fluorophenyl)-1,3-oxazolidin-5-yl]ethyl}-2,3-dihydrospiro[indene-1,4′-piperidin]-2-yl]oxy}acetyl)(methyl)amino]propyl}(methyl)carbamoyl]-3-chlorophenyl}amino)hexanoyl](methyl)amino}ethyl)piperidin-4-yl biphenyl-2-ylcarbamate trihydrochloride], the figures for the inhibition constant Ki in test [1], in test [3] and in test [4] were 1 nM, 1.9 nM and 2.2 nM, respectively. For the same compound, in test [2], the ID50 is 0.0327 mg/kg. Besides, the ED50 in test [5] is 0.0373 mg/kg.

Source of the values: patent US8476253B2, “Amide derivative” (Daiichi Sankyo Company, Limited, priority 2009, dated 2013).
